Measurements from publication PMC12040169 (PLOS Biology, 2025).

Test: in vitro
Conditions: human, hela cells, % viability

## CN(C)Cc1ccccc1-n1cc(-c2cccnc2)nn1 [CBK113064]
  viability at 28.5 h, 10 µM: 92.5%

## FC(F)(F)Oc1ccc(-n2cc(-c3ccsc3)nn2)cc1 [CBK113096]
  viability at 28.5 h, 10 µM: 92.7%

## O=S1(=O)CCN(Cc2cn(-c3ccccc3)nn2)CC1 [CBK113103]
  viability at 28.5 h, 10 µM: 88.9%

## O=S1(=O)CCN(Cc2cn(-c3ccc(-c4ccccc4)cc3)nn2)CC1 [CBK113105]
  viability at 28.5 h, 10 µM: 95.4%

## COc1ccc(-n2cc(-c3ccncc3)nn2)cc1OC [CBK113106]
  viability at 28.5 h, 10 µM: 109%

## COc1ccc(-n2cc(-c3ccc(F)cc3)nn2)cc1 [CBK113111]
  viability at 28.5 h, 10 µM: 102%

## CC(C)(C)c1ccc(-n2cc(-c3ccc(F)cc3)nn2)cc1 [CBK113112]
  viability at 28.5 h, 10 µM: 103%

## Fc1ccc(-c2cn(-c3ccc4c(c3)CCO4)nn2)cc1 [CBK113132]
  viability at 28.5 h, 10 µM: 97%

## COc1ccc(-n2cc(-c3ccccn3)nn2)cc1OC [CBK113133]
  viability at 28.5 h, 10 µM: 103%

## CCc1ccc(-n2cc(-c3ccccn3)nn2)cc1 [CBK113137]
  viability at 28.5 h, 10 µM: 106%

## Fc1cc(Br)ccc1-c1cn(-c2ccc3[nH]ccc3c2)nn1 [CBK113146]
  viability at 28.5 h, 10 µM: 91.2%

## Fc1cc(Br)ccc1-c1cn(-c2ccccc2)nn1 [CBK113148]
  viability at 28.5 h, 10 µM: 80.7%

## CCOC(=O)c1cccc(-n2cc(-c3ccc(Br)cc3F)nn2)c1 [CBK113153]
  viability at 28.5 h, 10 µM: 92.3%

## Cc1cc(C)n(S(=O)(=O)c2cc(C(=O)O)c(Cl)cc2Cl)n1 [CBK113170]
  viability at 28.5 h, 10 µM: 86.3%

## NS(=O)(=O)c1ccccc1Cl [CBK113172]
  viability at 28.5 h, 10 µM: 98.1%

## CC(C)(C)c1ccc(C(=O)Nc2nsc(-c3ccc(Cl)cc3)n2)cc1 [CBK113176]
  viability at 28.5 h, 10 µM: 89.6%

## NS(=O)(=O)c1cc(C(=O)O)ccc1F [CBK113180]
  viability at 28.5 h, 10 µM: 81.1%

## COC(=O)c1cc(S(N)(=O)=O)c(C)o1 [CBK113185]
  viability at 28.5 h, 10 µM: 104%

## O=C1c2ccccc2CN1c1ccccc1 [CBK113189]
  viability at 28.5 h, 10 µM: 95.9%

## O=C1c2ccccc2CN1c1cccc2ccccc12 [CBK113190]
  viability at 28.5 h, 10 µM: 85.3%

## CCOC(=O)Cn1nc(C)c(Cc2c(Cl)cccc2Cl)c1CC [CBK113223]
  viability at 28.5 h, 10 µM: 85%

## O=C(O)c1cc(S(=O)(=O)Nc2ccc(O)cc2)c(Cl)cc1Cl [CBK113231]
  viability at 28.5 h, 10 µM: 86.8%

## O=C(Nc1nsc(-c2ccccc2)n1)c1ccc(F)cc1 [CBK113232]
  viability at 28.5 h, 10 µM: 87.8%

## O=C1c2ccccc2CN1c1ccc(OC(F)(F)F)cc1 [CBK113237]
  viability at 28.5 h, 10 µM: 91.3%

## Cc1ccc(N2C(=O)c3ccccc3C2Nc2ccccc2)nc1 (centres unmarked) [CBK113238]
  viability at 28.5 h, 10 µM: 101%

## Cc1ccc(N2C(=O)c3ccccc3C2=O)cc1 [CBK113243]
  viability at 28.5 h, 10 µM: 95.7%

## CN1CCN(CCCCC2(C)SC(NC3CCCCCC3)=NC2=O)CC1 (centres unmarked) [CBK113259]
  viability at 28.5 h, 10 µM: 93.3%

## Cc1c(Cc2c(Cl)cccc2Cl)c(=O)n(C)n1C [CBK113274]
  viability at 28.5 h, 10 µM: 97.2%

## CCCc1n[nH]c(Cc2c(Cl)cccc2Cl)c1C(=O)OCC [CBK113275]
  viability at 28.5 h, 10 µM: 88.9%

## CC(C)Nc1nc2ccccc2nc1OC1CCN(C)C1 (centres unmarked) [CBK113283]
  viability at 28.5 h, 10 µM: 81.1%

## FC(F)(F)c1ccnc(OCCN2CCOCC2)c1 [CBK113286]
  viability at 28.5 h, 10 µM: 97.1%

## FC(F)(F)c1cccc(OCCN2CCOCC2)n1 [CBK113289]
  viability at 28.5 h, 10 µM: 105%

## FC(F)(F)c1cccc(OC2CCCNC2)n1 (centres unmarked) [CBK113290]
  viability at 28.5 h, 10 µM: 93.2%

## FC(F)(F)c1ccnc(OCCN2CCNCC2)n1 [CBK113297]
  viability at 28.5 h, 10 µM: 97.5%

## FC(F)(F)c1nc2ccccc2nc1OCCN1CCNCC1 [CBK113302]
  viability at 28.5 h, 10 µM: 99.4%

## CC(C)Oc1cncc(Cl)n1 [CBK113321]
  viability at 28.5 h, 10 µM: 106%

## c1ccc2oc(-c3cc4ccccc4o3)cc2c1 [CBK113363]
  viability at 28.5 h, 10 µM: 113%

## Clc1nc2ccccc2nc1OCCOc1ccccc1 [CBK113367]
  viability at 28.5 h, 10 µM: 108%

## CC(C)Nc1nc2ccccc2nc1OCCCN(C)C [CBK113416]
  viability at 28.5 h, 10 µM: 108%

## CC(C)Nc1nc2cc(Cl)c(Cl)cc2nc1OCCN(C)C [CBK113419]
  viability at 28.5 h, 10 µM: 103%

## c1ncc(N2CCCC2)nc1OCCN1CCOCC1 [CBK113430]
  viability at 28.5 h, 10 µM: 89.1%

## Clc1cc2nc(OC3CCCNC3)c(N3CCCC3)nc2cc1Cl (centres unmarked) [CBK113454]
  viability at 28.5 h, 10 µM: 108%

## FC(F)(F)c1cccnc1OCCN1CCOCC1 [CBK113456]
  viability at 28.5 h, 10 µM: 101%

## CN1CCN(C)C(COc2ncccc2C(F)(F)F)C1 (centres unmarked) [CBK113458]
  viability at 28.5 h, 10 µM: 90.5%

## CCN(CC)CCCOC1(C)SC(NC2CCCCCC2)=NC1=O (centres unmarked) [CBK113510]
  viability at 28.5 h, 10 µM: 86.5%

## Fc1ccc(OCCCCCN2CCC3(CC2)OCCc2c3[nH]c3ccccc23)cc1 [CBK113516T]
  viability at 28.5 h, 10 µM: 2.48%

## CCCc1n[nH]c(-c2cccc(C)c2C)c1C(=O)OCC [CBK113545]
  viability at 28.5 h, 10 µM: 106%

## CCCc1n[nH]c(-c2c(F)cccc2F)c1C(=O)OCC [CBK113546]
  viability at 28.5 h, 10 µM: 92.7%

## COc1cccc(CCOc2cncc(Cl)n2)c1 [CBK113556]
  viability at 28.5 h, 10 µM: 87.3%

## CS(=O)(=O)c1ccc(Nc2ncnc(N3CCC(Sc4ccccc4)CC3)c2[N+](=O)[O-])cc1 [CBK113567]
  viability at 28.5 h, 10 µM: 92.8%

## OC1CCCn2c1nc1cc(Cl)ccc12 (centres unmarked) [CBK113625]
  viability at 28.5 h, 10 µM: 72.4%

## COc1ccc(C)cc1S(=O)(=O)N1CCc2c(CN3CCN(C)CC3)cccc21 [CBK113628T]
  viability at 28.5 h, 10 µM: 115%

## COc1ccc(C)cc1S(=O)(=O)N1CCc2c(CN3CCOCC3)cccc21 [CBK113630T]
  viability at 28.5 h, 10 µM: 86.8%

## N#Cc1ccc(-c2cnc(N)c(-c3ccccc3Cl)n2)cc1 [CBK113660]
  viability at 28.5 h, 10 µM: 88.5%

## COc1ccc(N2Cc3ccccc3C2=O)cc1OC [CBK113666]
  viability at 28.5 h, 10 µM: 95.5%

## Cn1ncc2c1C(=O)NC1c3ccccc3C(=O)N21 (centres unmarked) [CBK113668]
  viability at 28.5 h, 10 µM: 94.3%

## O=c1sn(-c2ccccc2C(F)(F)F)c(=O)n1CC1CC1 [CBK113675]
  viability at 28.5 h, 10 µM: 82.8%

## Cc1n[nH]cc1-c1nsc(Nc2ccccc2)n1 [CBK113680]
  viability at 28.5 h, 10 µM: 92.2%

## O=C(O)c1cc(S(=O)(=O)Nc2ccc(F)cc2)c(Cl)cc1Cl [CBK113685]
  viability at 28.5 h, 10 µM: 84.9%

## Cn1c(C(=O)O)ccc1S(=O)(=O)NCc1ccco1 [CBK113686]
  viability at 28.5 h, 10 µM: 105%

## Cc1cccc(NC(=O)c2ccccc2NS(=O)(=O)c2ccc(F)c(F)c2)c1 [CBK113810]
  viability at 28.5 h, 10 µM: 115%

## O=C(NCc1ccccc1)c1ccccc1NS(=O)(=O)c1ccccc1F [CBK113881]
  viability at 28.5 h, 10 µM: 106%

## CCCN(CCC)C(=O)c1ccc(-n2nc(C(=O)OCC)c(Br)c2C)cc1 [CBK114363]
  viability at 28.5 h, 10 µM: 109%

## Cc1nnc(-c2cc(CC(C)C)n(-c3cccc(C(=O)N4CC=CCC4)c3)n2)o1 [CBK114630]
  viability at 28.5 h, 10 µM: 91.6%

## Cc1nnc(-c2cc(CCC(C)C)n(-c3cccc(C(=O)N4CCCCC4)c3)n2)o1 [CBK114689]
  viability at 28.5 h, 10 µM: 95.4%

## Cc1csc(Sc2nccnc2NC(C)C)n1 [CBK115203]
  viability at 28.5 h, 10 µM: 88.8%

## CC(C)Nc1nccnc1Sc1nc[nH]n1 [CBK115205]
  viability at 28.5 h, 10 µM: 97.5%

## Cc1nnc(Sc2ncccc2C(F)(F)F)s1 [CBK115211]
  viability at 28.5 h, 10 µM: 87.7%

## FC(F)(F)c1cccnc1Sc1nc[nH]n1 [CBK115213]
  viability at 28.5 h, 10 µM: 102%

## Cc1nnc(Sc2cc(C(F)(F)F)ccn2)s1 [CBK115215]
  viability at 28.5 h, 10 µM: 87.6%

## c1csc(Sc2nc3ccccc3nc2N2CCCC2)c1 [CBK115225]
  viability at 28.5 h, 10 µM: 94.3%
